Measured values taken from patent publication US20070099851A1, “Stable analogues of ribose-1-phosphate and methods for treating diabetes and other metabolic disorders” (priority 2004, published 2007).
Like-named read-outs stand apart in the source and are kept apart here. Marks after values point to notes of the source that are not given here.

Tests used:
[1] = tested on: INS-1 clonal pancreatic B-cells; assay: Stimulation of insulin secretion in INS-1 cells; type: cell-based; conditions: for Insulin release greater compared to controls: 3 mM glucose, 500 μM compound, overnight; for Activating effect on insulin release, in words: 16 mM glucose
Experimental: INS-1 clonal pancreatic B-cells were grown in well plates or T-25 flasks incubated overnight with INS-1 cell media with 3 mM glucose and 500 μM of compound 3 or compound 4. Insulin samples were collected for 10 minutes at 18 second intervals. Insulin release was greater for both compound 3.1 and compound 4.1 compared to controls, by about 50 percent, under these conditions. At 16 mM glucose the activating effect disappeared.

[2] = tested on: Zucker (fa/fa) rats; assay: Glucose tolerance test in diabetic Zucker (fa/fa) rats; type: in vivo, rat; conditions: for Blood Glucose at 120 minutes: fasted Zucker (fa/fa) rats, IP glucose 1.5 g/kg
Experimental: Thirty-six 16 wk old male Zucker (fa/fa) rats were randomly assigned to one of the following groups: • 1. Vehicle (0.9% NaCl) • 2. Metformin—320 mg/kg • 3. Compound 1.1—10 mg/kg Acid • 4. Compound 1.1—100 mg/kg Acid • 5. Compound 3.1—10 mg/kg Ester • 6. Compound 3.1—100 mg/kg Ester
Animals were fasted for 16-18 hr and lightly anesthetized with a mixture of ketamine/xylazine at a dose of 0.5 ml/kg (45 mg/kg ketamine, 5 mg/kg xylazine). Animals received their respective treatments via IP injection (1.5 ml/kg) followed by an IP injection of glucose at 1.5 g/kg. Blood glucose was measured at 0, 30, 60, 90, and 120 minutes post-glucose.

[3] = tested on: HTC hepatoma cells; assay: Inhibition of intracellular lipid synthesis in HTC hepatoma cells; type: cell-based; conditions: 500 μM; for Cholesterol: control 48; for Triglyceride: control 60
[4] = target: 6-phosphofructo-1-kinase; assay: Activation of 6-phosphofructo-1-kinase; type: biochemical; conditions: for Ka: concentration giving half-maximal activation
Excerpt: (§1) Studies of Compound 2 have shown that it activates 6-phosphofructo-1-kinase (6PF1K) and inhibits fructose-1,6-bisphosphatase (FBPase). […] It is well known that by increasing the rate of glycolysis, the rate of gluconeogenesis decreases (Hanson et al. (1984) J. Biol. Chem. 259, 218-223).
Ka is the concentration of substrate giving half-maximal activation.

[5] = target: T1, calf spleen purine nucleoside phosphorylase (Bos taurus, UniProt P55859); assay: Inhibition of calf spleen purine nucleoside phosphorylase (cPNP); type: biochemical; conditions: for cPNP activity: 27 μM compound
T1 construct: from tissue; host or cells: calf spleen
T1 sequence (P55859 1-289): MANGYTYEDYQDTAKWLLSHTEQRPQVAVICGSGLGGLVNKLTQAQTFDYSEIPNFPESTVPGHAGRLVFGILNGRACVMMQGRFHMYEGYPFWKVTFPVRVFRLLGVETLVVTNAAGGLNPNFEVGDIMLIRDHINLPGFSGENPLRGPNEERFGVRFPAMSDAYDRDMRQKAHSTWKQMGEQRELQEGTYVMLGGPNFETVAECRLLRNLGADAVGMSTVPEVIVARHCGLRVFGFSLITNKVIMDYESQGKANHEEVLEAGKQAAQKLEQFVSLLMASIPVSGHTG
Experimental: Compound 4.1 (27 μM) was incubated with calf spleen purine nucleoside phosphorylase with increasing concentrations of inorganic phosphate.

[6] = tested on: Rh1, Ewing Sarcoma; assay: Anticancer activity, Rh1; type: cell-based
[7] = target: T2, human purine nucleoside phosphorylase (Homo sapiens, UniProt P00491); conditions: background statement; cited from earlier work
T2 sequence (P00491 1-289): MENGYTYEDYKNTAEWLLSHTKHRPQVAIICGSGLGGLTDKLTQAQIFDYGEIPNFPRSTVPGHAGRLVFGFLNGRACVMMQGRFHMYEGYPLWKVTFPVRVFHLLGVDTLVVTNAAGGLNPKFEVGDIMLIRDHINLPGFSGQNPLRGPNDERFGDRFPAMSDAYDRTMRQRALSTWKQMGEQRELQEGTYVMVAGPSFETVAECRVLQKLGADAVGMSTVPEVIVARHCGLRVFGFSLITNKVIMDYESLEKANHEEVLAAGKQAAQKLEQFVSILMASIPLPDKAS

[8] = target: T3, Fructose-1,6-bisphosphatase (Homo sapiens, UniProt P09467); assay: Inhibition of fructose-1,6-bisphosphatase; type: biochemical
T3 sequence (P09467 2-338 limits assumed): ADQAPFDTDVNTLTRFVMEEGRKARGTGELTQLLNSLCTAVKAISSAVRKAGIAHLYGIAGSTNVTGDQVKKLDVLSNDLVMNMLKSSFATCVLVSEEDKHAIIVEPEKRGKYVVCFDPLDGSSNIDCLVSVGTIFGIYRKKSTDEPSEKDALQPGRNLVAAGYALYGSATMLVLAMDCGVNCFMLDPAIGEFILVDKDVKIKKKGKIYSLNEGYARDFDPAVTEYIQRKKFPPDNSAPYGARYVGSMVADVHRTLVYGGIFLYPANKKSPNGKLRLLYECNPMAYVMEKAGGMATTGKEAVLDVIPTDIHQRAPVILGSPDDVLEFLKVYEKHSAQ
Excerpt: as §1

[9] = tested on: HL-60, Leukemia; assay: Anticancer activity, HL-60; type: cell-based
[10] = tested on: FAO hepatoma cells; conditions: background statement; cited from earlier work
[11] = tested on: FAO hepatoma cells; assay: Inhibition of glucose production in FAO cells; type: cell-based; conditions: for Percent inhibition of glucose production: FAO cells
Excerpt: as §1

[12] = target: 6-phosphofructo-1-kinase; conditions: background statement; cited from earlier work
[13] = target: T3, Fructose-1,6-bisphosphatase; conditions: background statement; cited from earlier work

CCOP(=O)(CC1OC(CO)C(O)C1O)OCC (stereo not shown) [Compound 3.1, ribose-1-methylenediethylphosphonate]
Insulin release greater compared to controls [1]: about 50% | Activating effect on insulin release, in words [1]: disappeared

CN(C)C(=N)N=C(N)N [Metformin, reference compound]
Blood Glucose at 120 minutes ([2]; 320 mg/kg IP): 400 mg/dL | Cholesterol [3]: 38 μg/mg protein | Triglyceride [3]: 42 μg/mg protein

O=P(O)(O)OC[C@H]1O[C@@](CO)(OP(=O)(O)O)[C@@H](O)[C@@H]1O [fructose-2,6-bisphosphate, reference compound]
Ka [4]: 0.09 µM

O=P(O)(O)C(F)(F)C1OC(CO)C(O)C1O (stereo not shown) [Compound 4.1, ribose-1-difluoromethylenephosphonate]
cPNP activity ([5]; Pi 20 μM, control 170): 18* arbitrary units | cPNP activity ([5]; Pi 50 μM, control 237): 31 arbitrary units | cPNP activity ([5]; Pi 200 μM, control 298): 96 arbitrary units | cPNP activity ([5]; Pi 1500 μM, control 327): 176 arbitrary units | Mode of inhibition of cPNP, in words ([5]; 27 μM, increasing inorganic phosphate): likely a competitive inhibitor of cPNP | IC50 [6]: 170 µM | Insulin release greater compared to controls [1]: about 50% | Activating effect on insulin release, in words [1]: disappeared | Cholesterol [3]: 39 μg/mg protein | Triglyceride [3]: 44 μg/mg protein | Decrease in cholesterol levels compared to control ([3]; overnight): ~20% | Decrease in triglyceride levels compared to control ([3]; overnight): 26%

O=P(O)(O)OC1O[C@H](CI)[C@@H](O)[C@H]1O (stereo partly shown) [5-iodo-ribose-1-phosphate]
Effect on human purine nucleoside phosphorylase, in words [7]: inhibits

O=P(O)(O)OC[C@H]1OC(OP(=O)(O)O)[C@H](O)[C@@H]1O (stereo partly shown) [ribose-1,5-bisphosphate, reference compound]
Ki ([8]; At 5 μM Fru-1,6-bisphosphate): 87 µM | Maximum Decrease in Activity ([8]; At 5 μM Fru-1,6-bisphosphate): 50% | Ki ([8]; At 20 μM Fru-1,6-bisphosphate): 87 µM | Maximum Decrease in Activity ([8]; At 20 μM Fru-1,6-bisphosphate): 50% | Ka [4]: 3.5 µM

O=P(O)(O)CC1OC(CO)C(O)C1O (stereo not shown) [Compound 1.1, ribose-1-methylenephosphonate]
Blood Glucose at 120 minutes ([2]; 10 mg/kg IP): 460 mg/dL | Blood Glucose at 120 minutes ([2]; 100 mg/kg IP): 400 mg/dL | Effect on blood glucose levels, in words ([2]; fasted diabetic Zucker (fa/fa), injected, glucose challenge): reduce blood glucose levels | IC50 [9]: 170 µM

O=P(O)(O)CC1OC(COP(=O)(O)O)C(O)C1O (stereo not shown) [Compound 2.1, 5-phosphoribosyl-1-methylenephosphonate]
Blood Glucose at 120 minutes ([2]; 10 mg/kg IP): 500 mg/dL | Blood Glucose at 120 minutes ([2]; 100 mg/kg IP): 500 mg/dL | Glucose production in cultured hepatoma cells (FAO), in words [10]: inhibit glucose production | Percent inhibition of glucose production ([11]; 60 μM): 20 ± 15% | Percent inhibition of glucose production ([11]; 100 μM (last row of the table)): 60 ± 15% | Percent inhibition of glucose production ([11]; 125 μM): 35 ± 10% | Percent inhibition of glucose production ([11]; 250 μM): 40 ± 10% | Percent inhibition of glucose production ([11]; 500 μM): 35 ± 10% | Glucose production in FAO hepatoma cells, in words ([11]; incubated with FAO hepatoma cells): inhibits glucose production | Ka [12]: 6.5 µM | Ki [13]: 85 µM | Effect on fructose-1,6-bisphosphatase (FBPase), in words [8]: inhibits | Ki ([8]; At 5 μM Fru-1,6-bisphosphate): 87 µM | Maximum Decrease in Activity ([8]; At 5 μM Fru-1,6-bisphosphate): 50% | Ki ([8]; At 20 μM Fru-1,6-bisphosphate): 87 µM | Maximum Decrease in Activity ([8]; At 20 μM Fru-1,6-bisphosphate): 50% | Effect on 6-phosphofructo-1-kinase (6PF1K), in words [4]: activates | Ka [4]: 6.5 µM
